The values below are quoted from earlier work in publication PMC7524040 (Biochemistry, 2020).

Ends that are not written are not given here.

Series [1] has as its system cardiac heteromeric Kir3.1/3.4 channel. To be noted: heteromeric Kir3.1/Kir3.4 channels.

By IC50 is commonly meant the concentration needed to halve the response being measured. In the case of “Tertiapin (ALCNCNRIIIPHMCWKKCGKK; not fully specified (C-terminus, bridges); ends and bridges not checked; UniProt P56587 1-21, looked up) [TPN]”, the “decrease in the inhibitory action after air oxidation of M13” value in series [1] is listed as 4- to 5 fold. Moreover, in the series on native IKACh channel, the IC50 is 0.03 µM.
